Test results published in PMC7232190, “FDA-Approved Drugs Efavirenz, Tipranavir, and Dasabuvir Inhibit Replication of Multiple Flaviviruses in Vero Cells” (Microorganisms, 2020).

Legend:
ZIKV (strain MR-766) [1] = assay: Inhibition of ZIKV-mediated cytopathic effect in a simultaneous treatment assay, Vero cells; details: 50 µM, 48 h
ZIKV (strain MR-766) [2] = assay: Anti-ZIKV activity in a post-treatment assay, plaque assay, Vero cells; type: cell-based, Zika virus; details: 50 µM, 48 h
ZIKV (Paraiba_01) [3] = assay: microbe, parasite or virus in culture; type: cell-based, Zika virus; details: Vero cells; for EC50: Zika virus, pretreatment 24 h, 48 h incubation, plaque assay
ZIKV (Paraiba_01) [4] = assay: Anti-ZIKV activity in human neural cells, pretreatment assay, UKF-NB-4 cells; type: cell-based, Zika virus; details: 48 h
[5] = Cytotoxicity assay (Cell Counting Kit-8); type: cell-based, Human; details: human, 72 h treatment, 0-100 µM
Experimental: (§1) For detailed cytotoxicity studies, Vero, HBCA, and UKF-NB-4 cells were seeded onto 96-well plates at a density of 10,000 cells per well and incubated for 24 h at 37 °C before being used in the experiment to form a confluent monolayer. After the incubation, tested compounds were added to the cells at concentrations of 0, 3.125, 6.25, 12.5, 25, 50, 75, and 100 µM, and treated under the same regime as during antiviral testing; i.e., pretreatment for 24 h with culture medium containing appropriate drug concentrations, then the medium was exchanged with fresh compound-containing medium. […] The 50% cytotoxic concentration (CC50) values, representing the concentration of compound that reduced cell viability by 50%, were calculated using GraphPad Prism (version 7.04, GraphPad Software, San Diego, CA, USA) as a nonlinear regression (inhibitor vs. normalized response, variable slope).

UKF-NB-4 cells = assay: Cytotoxicity assay (Cell Counting Kit-8); type: cell-based, Human
Experimental: as §1

HBCA cells = assay: Cytotoxicity assay (Cell Counting Kit-8); type: cell-based, Human
Experimental: as §1

ZIKV (Paraiba_01) [6] = assay: Anti-ZIKV activity in human neural cells, pretreatment assay, HBCA cells; type: cell-based, Zika virus; details: 48 h
[7] = Cytotoxicity assay (Cell Counting Kit-8); type: cell-based; details: African green monkey; Vero cells, 72 h treatment, 0-100 µM
Experimental: as §1

ZIKV (strain MR-766) [8] = assay: Anti-ZIKV activity in a simultaneous treatment assay, plaque assay, Vero cells; type: cell-based, Zika virus; details: 50 µM, 48 h
TBEV (Hypr) = assay: microbe, parasite or virus in culture; type: cell-based, tick-borne encephalitis virus; details: for EC50: Tick-borne encephalitis virus, Vero
[9] = tested on: flaviviral surface E antigen (all VBFs tested); assay: Immunofluorescence staining of viral antigen in infected Vero cells; type: cell-based; details: 48 h p.i., 0, 40, 50 µM dasabuvir or efavirenz, 0, 75, 100 µM tipranavir
Experimental: The results obtained from antiviral assays were confirmed using a cell-based flavivirus immunostaining assay with a mouse monoclonal antibody that specifically recognizes the flavivirus group surface antigen, as described previously. Briefly, Vero cells seeded onto 96-well plates were treated with the test compound (0, 40, or 50 μM dasabuvir or efavirenz; 0, 75, or 100 μM tipranavir) and infected with the individual viruses at a multiplicity of infection of 0.1. After incubation at 37 °C for 48 h, the cell monolayers were fixed with cold acetone-methanol (1:1), blocked with 10% fetal bovine serum, and incubated with the flavivirus antibody (1:250; Sigma-Aldrich, Prague, Czech Republic). After washing, the cells were labeled with an anti-mouse goat secondary antibody conjugated with fluorescein isothiocyanate (FITC; 1:500) and counterstained with DAPI (4′,6-diamidino-2-phenylindole; 1 μg/mL) to allow visualization of the cell nuclei. The fluorescence signal was recorded with an Olympus IX71 epifluorescence microscope and processed by ImageJ software.

HIV = tested on: HIV; parameters: method as in PMID 21041916, PMID 18158073; details: H9 cells; read-out: EC90 (anti-HIV activity); cited from earlier work
ZIKV (MR-766) = assay: microbe, parasite or virus in culture; type: cell-based, Zika virus; details: Vero cells; for EC50: Zika virus, pretreatment 24 h, 48 h incubation, plaque assay
WNV (Eg101) = assay: microbe, parasite or virus in culture; type: cell-based, West Nile virus; details: Vero cells; for EC50: pretreatment 24 h, 48 h incubation, plaque assay
WNV (13-104) = assay: microbe, parasite or virus in culture; type: cell-based, West Nile virus; details: Vero cells; for EC50: West Nile virus, pretreatment 24 h, 48 h incubation, plaque assay
HCV genotype 1b replicon = tested on: HCV genotype 1b replicon; parameters: method as in PMID 25534735; details: HCV subgenomic replicon; cited from earlier work
HCV genotype 1a replicon = tested on: HCV genotype 1a replicon; parameters: method as in PMID 25534735; details: HCV subgenomic replicon; cited from earlier work

CCC[C@@]1(CCc2ccccc2)CC(O)=C([C@H](CC)c2cccc(NS(=O)(=O)c3ccc(C(F)(F)F)cn3)c2)C(=O)O1 [Tipranavir, tipranavir]
viability of the infected cells compared to uninfected controls (inhibition of ZIKV-mediated CPE) (ZIKV (strain MR-766) [1]): > 90%
anti-ZIKV effect, drug applied 2 h post-infection (ZIKV (strain MR-766) [2]): even stronger compared to 7-deaza-2′-C-methyladenosine
EC50 (ZIKV (Paraiba_01) [3]): 29.9 µM
antiviral effect against ZIKV (virus titer reduction) (ZIKV (Paraiba_01) [4]; 50 µM): approx. 10^3 fold
CC50 at 72 h ([5]; HBCA cells): 34 µM
CC50 at 72 h ([5]; UKF-NB-4 cells): 89.2 µM
highest non-toxic (>90% viability of the treated cells) concentration (UKF-NB-4 cells): 50 µM
highest non-toxic (>90% viability of the treated cells) concentration (HBCA cells): 12.5 µM
reduction of ZIKV replication in the HBCA culture (ZIKV (Paraiba_01) [6]; 12.5 µM): approx. 10^3 fold
CC50 at 72 h [7]: > 100 µM
effect on ZIKV titer in the culture (ZIKV (strain MR-766) [8]): reduced ZIKV titer
Selectivity Index (SI) (CC50/EC50) (TBEV (Hypr)): 3.79
EC50 (TBEV (Hypr)): 35.5 µM
surface E antigen expression by all VBFs tested [9]: dose-dependent inhibition
EC90 (HIV): 0.1 µM
Selectivity Index (SI) (CC50/EC50) (ZIKV (MR-766)): 4.45
EC50 (ZIKV (MR-766)): 30.3 µM
Selectivity Index (SI) (CC50/EC50) (WNV (Eg101)): 4.12
EC50 (WNV (Eg101); West Nile virus, Vero): 32.7 µM
Selectivity Index (SI) (CC50/EC50) (WNV (13-104)): 5.58
EC50 (WNV (13-104)): 24.2 µM

O=C1Nc2ccc(Cl)cc2[C@@](C#CC2CC2)(C(F)(F)F)O1 [Efavirenz, efavirenz]
viability of the infected cells compared to uninfected controls (inhibition of ZIKV-mediated CPE) (ZIKV (strain MR-766) [1]): > 90%
anti-ZIKV effect, drug applied 2 h post-infection (ZIKV (strain MR-766) [2]): antiviral effect
Selectivity Index (SI) (CC50/EC50) (ZIKV (Paraiba_01) [3]): 2.85
EC50 (ZIKV (Paraiba_01) [3]): 25.8 µM
antiviral effect against ZIKV (ZIKV (Paraiba_01) [4]; any concentration tested): No antiviral effect
CC50 at 72 h ([5]; HBCA cells): 16.7 µM
CC50 at 72 h ([5]; UKF-NB-4 cells): 31.9 µM
highest non-toxic (>90% viability of the treated cells) concentration (UKF-NB-4 cells): 12.5 µM
highest non-toxic (>90% viability of the treated cells) concentration (HBCA cells): 3.125 µM
antiviral effect against ZIKV (ZIKV (Paraiba_01) [6]; any concentration tested): No antiviral effect
CC50 at 72 h [7]: 73.6 µM
effect on ZIKV titer in the culture (ZIKV (strain MR-766) [8]): reduced ZIKV titer
Selectivity Index (SI) (CC50/EC50) (TBEV (Hypr)): 4.63
EC50 (TBEV (Hypr)): 15.9 µM
surface E antigen expression by all VBFs tested [9]: dose-dependent inhibition
Selectivity Index (SI) (CC50/EC50) (ZIKV (MR-766)): 2.41
EC50 (ZIKV (MR-766)): 30.4 µM
Selectivity Index (SI) (CC50/EC50) (WNV (Eg101)): 3.35
EC50 (WNV (Eg101); West Nile virus, Vero): 21.9 µM
Selectivity Index (SI) (CC50/EC50) (WNV (13-104)): 4.50
EC50 (WNV (13-104)): 16.3 µM

COc1c(-c2ccc3cc(NS(C)(=O)=O)ccc3c2)cc(-n2ccc(=O)[nH]c2=O)cc1C(C)(C)C [Dasabuvir, dasabuvir]
viability of the infected cells compared to uninfected controls (inhibition of ZIKV-mediated CPE) (ZIKV (strain MR-766) [1]): > 90%
anti-ZIKV effect, drug applied 2 h post-infection (ZIKV (strain MR-766) [2]): even stronger compared to 7-deaza-2′-C-methyladenosine
Selectivity Index (SI) (CC50/EC50) (ZIKV (Paraiba_01) [3]): 6.29
EC50 (ZIKV (Paraiba_01) [3]): 16.1 µM
virus titer reduction in comparison with mock-treated control cells (ZIKV (Paraiba_01) [4]; highest concentration of the drug): approximately 1 log10 pfu/mL
CC50 at 72 h ([5]; HBCA cells): 26 µM
CC50 at 72 h ([5]; UKF-NB-4 cells): 21.3 µM
highest non-toxic (>90% viability of the treated cells) concentration (UKF-NB-4 cells): 6.25 µM
highest non-toxic (>90% viability of the treated cells) concentration (HBCA cells): 12.5 µM
effect on ZIKV replication in the cell culture (ZIKV (Paraiba_01) [6]; 12.5 µM): completely suppressed ZIKV replication
CC50 at 72 h [7]: 102 µM
effect on ZIKV titer in the culture (ZIKV (strain MR-766) [8]): reduced ZIKV titer
EC50 (HCV genotype 1b replicon): 0.0018 µM
Selectivity Index (SI) (CC50/EC50) (TBEV (Hypr)): 6.67
EC50 (TBEV (Hypr)): 15.2 µM
surface E antigen expression by all VBFs tested [9]: dose-dependent inhibition
EC50 (HCV genotype 1a replicon): 0.0077 µM
Selectivity Index (SI) (CC50/EC50) (ZIKV (MR-766)): 6.54
EC50 (ZIKV (MR-766)): 15.5 µM
Selectivity Index (SI) (CC50/EC50) (WNV (Eg101)): 5.60
EC50 (WNV (Eg101)): 18.1 µM
EC50 (WNV (Eg101); West Nile virus, Vero): 18.8 µM
Selectivity Index (SI) (CC50/EC50) (WNV (13-104)): 6.48
EC50 (WNV (13-104)): 15.7 µM

C[C@@H]1CCO[C@H]2Cn3cc(C(=O)NCc4ccc(F)cc4F)c(=O)c(O)c3C(=O)N12 [dolutegravir]
viability of the infected cells compared to uninfected controls (inhibition of ZIKV-mediated CPE) (ZIKV (strain MR-766) [1]): > 90%
